Assay results reported in article PMC10122656, “Siglec-6 mediates the uptake of extracellular vesicles through a noncanonical glycolipid binding pocket” (Nature Communications, 2023).
Where “and” joins values, the source holds several entries; their conditions need not be identical. Equal values may be shown once.

Legend:
Experiment in all cases: Cell assay (liposome/EV binding, flow cytometry)
Type in all cases: cell-based
Siglec-7 R124A CHO cells = molecular target: T1, Siglec-7 R124A CHO cells (Homo sapiens, UniProt Q9Y286, R124A); conditions: Sig-7 R124A†; † after treatment of cells with neuraminidase; 3 mol% ganglioside liposomes; replicates
T1 construct: expressed in transfected cells
T1 sequence (Q9Y286 19-467 R124A): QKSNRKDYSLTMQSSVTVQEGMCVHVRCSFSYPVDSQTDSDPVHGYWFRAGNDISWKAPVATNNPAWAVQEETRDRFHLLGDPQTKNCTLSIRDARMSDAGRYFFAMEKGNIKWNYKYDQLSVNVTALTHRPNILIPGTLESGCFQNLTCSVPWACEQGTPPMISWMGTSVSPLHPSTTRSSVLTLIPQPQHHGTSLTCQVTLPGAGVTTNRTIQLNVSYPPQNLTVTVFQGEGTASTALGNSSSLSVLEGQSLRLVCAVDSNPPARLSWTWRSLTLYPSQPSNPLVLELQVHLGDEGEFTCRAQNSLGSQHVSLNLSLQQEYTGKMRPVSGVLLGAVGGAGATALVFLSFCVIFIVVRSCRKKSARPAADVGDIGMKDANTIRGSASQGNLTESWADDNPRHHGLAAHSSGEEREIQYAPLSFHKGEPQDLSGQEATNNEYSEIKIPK
Protocol: (§1) Stock lipids (DSPC, Cholesterol, PEG45–DSPE) solutions were prepared by solvating the lipids in chloroform. An appropriate volume of each lipid solution was transferred to a glass test tube to reach the desired mol% of the component. The chloroform was then removed under N2 gas to yield a lipid thin film. Once dry, 100 µL of DMSO was added to the lipid-containing test tube and then the functional lipids (ganglioside, AF647–PEG45–DSPE, Siglec ligand–PEG45–DSPE, pHrodo–PEG45–DSPE, NGL) was added from their respect DMSO stock solution. The lipid mixture was then stored at −80 °C until completely frozen at which point excess DMSO was removed via lyophilization. Dry lipids were then stored at −80 °C until they were extruded. Lipid suppliers can be found in Supplementary Table 4.
(§2) Dry lipids were then hydrated in 1 mL of PBS. The lipids were then sonicated in a bath sonicator in a cycle of 1 min on, 5 min off for a total of five cycles. Liposomes were then extruded using an Avanti mini extruder first using an 800 nm filter and then a 100 nm filter yielding liposomes that were 130 ± 35 nm (Supplementary Table 5) measured using a Malvern Panalytical Zetasizer Nano S. Liposomes were stored at 4 °C.
(§3) 200,000 cells/well were plated into a 96-well U-bottom microplate and centrifuged at 300 × g for 5 min. The cells were then resuspended in 50 µL of 50 µM liposome/50 µg/mL (protein concentration) of EV solution in DMEM F12 5% FBS and incubated at 37 °C for 30 min. Excess liposomes were then removed via centrifuged at 300 × g for 5 min followed by washing the cells with FACS solution. The cells were then resuspended in (1:250 V/V) anti-Siglec-flow buffer (1% V/V FBS, 500 µM, EDTA Hank’s Balanced Salt Solution pH 7.4), solution and left to rest on ice for 30 min. The cells were then centrifuged again at 300 × g for 5 min and the cells were resuspended in FACS buffer solution and were then ready for analysis by flow cytometry. Information regarding antibody clone, catalog number supplier, label isotype, and dilution can be found in Supplementary Table 6. The Siglec-positive cells were gated on for liposome-binding analysis (Supplementary Fig. 1b).
(§4) Flow cytometry measurements were collected on a 5-laser Fortessa X-20 (BD Bioscience). All the resulting data were analyzed using FlowJo (10.5.3) software (BD Biosciences).
(§5) Cells were harvested and resuspended in complete media with either Neuraminidase A or S. The cells were then placed in a 37 °C shaking incubator for 1 h. The cells were then washed with complete media and then the liposome binding assay was performed as described above.

Siglec-5 R119A CHO cells = molecular target: T2, Siglec-5 R119A CHO cells (Homo sapiens, UniProt O15389, R119A); conditions: Sig-5 R119A†; † after treatment of cells with neuraminidase; 3 mol% ganglioside liposomes; replicates
T2 construct: expressed in transfected cells
T2 sequence (O15389 17-551 R119A): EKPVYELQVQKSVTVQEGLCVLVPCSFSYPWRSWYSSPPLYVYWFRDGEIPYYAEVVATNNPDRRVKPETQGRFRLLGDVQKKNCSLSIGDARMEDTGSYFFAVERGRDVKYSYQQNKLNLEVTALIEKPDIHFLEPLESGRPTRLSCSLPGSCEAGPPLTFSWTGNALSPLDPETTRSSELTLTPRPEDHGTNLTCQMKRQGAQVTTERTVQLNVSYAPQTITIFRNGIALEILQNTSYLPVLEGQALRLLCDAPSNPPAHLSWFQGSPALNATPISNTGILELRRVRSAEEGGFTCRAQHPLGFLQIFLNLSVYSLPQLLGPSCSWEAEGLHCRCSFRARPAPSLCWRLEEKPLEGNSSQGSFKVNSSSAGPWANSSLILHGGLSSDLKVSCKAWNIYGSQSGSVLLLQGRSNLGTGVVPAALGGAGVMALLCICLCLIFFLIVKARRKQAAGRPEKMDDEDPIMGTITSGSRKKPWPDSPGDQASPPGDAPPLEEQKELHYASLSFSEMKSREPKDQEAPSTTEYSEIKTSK
Protocol: as §1, §2, §3, §4, §5

Siglec-4 R118A CHO cells = molecular target: T3, Siglec-4 R118A CHO cells (Homo sapiens, UniProt P20916, R118A); conditions: Sig-4 R118A†; † after treatment of cells with neuraminidase; 3 mol% ganglioside liposomes; replicates
T3 construct: expressed in transfected cells
T3 sequence (P20916 20-626 R118A): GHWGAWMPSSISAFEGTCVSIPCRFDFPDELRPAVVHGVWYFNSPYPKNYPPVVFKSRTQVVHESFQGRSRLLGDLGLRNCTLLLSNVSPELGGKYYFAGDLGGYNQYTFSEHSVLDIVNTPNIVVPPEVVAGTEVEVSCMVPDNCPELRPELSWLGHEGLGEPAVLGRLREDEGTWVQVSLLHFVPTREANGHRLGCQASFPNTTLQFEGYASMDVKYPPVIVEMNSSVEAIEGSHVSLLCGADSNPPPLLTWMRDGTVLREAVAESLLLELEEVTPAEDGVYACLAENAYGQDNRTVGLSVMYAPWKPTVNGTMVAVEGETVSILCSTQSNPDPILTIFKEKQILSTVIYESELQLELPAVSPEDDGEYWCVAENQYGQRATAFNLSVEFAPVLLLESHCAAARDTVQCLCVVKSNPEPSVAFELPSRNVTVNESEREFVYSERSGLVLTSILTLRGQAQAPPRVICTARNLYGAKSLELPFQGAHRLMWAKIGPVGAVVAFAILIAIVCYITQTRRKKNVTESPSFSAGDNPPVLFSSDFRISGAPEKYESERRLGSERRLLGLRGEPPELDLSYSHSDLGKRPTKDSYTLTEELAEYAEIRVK
Protocol: as §1, §2, §3, §4, §5

Row | Substance | log10(MFI AF647) of GLL relative to log10(MFI AF647) of the same GLL against UT CHO cells (Fig. 2a) (Siglec-7 R124A CHO cells) | log10(MFI AF647) of GLL relative to log10(MFI AF647) of the same GLL against UT CHO cells (Fig. 2a) (Siglec-5 R119A CHO cells) | log10(MFI AF647) of GLL relative to log10(MFI AF647) of the same GLL against UT CHO cells (Fig. 2a) (Siglec-4 R118A CHO cells)
1 | GD1a | -0.2 and -0.15 and -0.24 | -0.25 and -0.02 and -0.03 and 0.01 | 0 (2×) and 0.02 and 0.01
2 | GD1b | -0.23 (2×) and -0.27 | 0.17 and -0.03 and -0.02 and 0.04 | 0.08 and 0.05 and 0.02 and 0.03
3 | GD3 | -0.08 and -0.02 and -0.1 | -0.21 (2×) and -0.15 (2×) | -0.13 and -0.1 and -0.07 and -0.14
4 | GM1 | -0.08 and -0.05 and -0.01 | -0.32 and -0.33 and -0.29 and -0.28 | -0.3 and -0.31 (2×) and -0.32
5 | GM2 | -0.25 and -0.22 and -0.35 | -0.1 and -0.09 (2×) and -0.11 | 0 and -0.04 and -0.02 and -0.03
6 | GM3 | -0.45 and -0.31 and -0.25 | -0.22 (2×) and -0.21 and -0.24 | -0.24 and -0.19 (2×) and -0.2
7 | GM4 | -0.35 and -0.25 and -0.4 | -0.2 (3×) and -0.21 | -0.12 (2×) and -0.1 and -0.07
8 | GQ1b | 0.01 and -0.05 and -0.03 | -0.2 and -0.19 and -0.12 and -0.08 | -0.12 and -0.13 (2×) and -0.1
9 | GT1b | -0.17 and -0.19 and -0.09 | -0.05 and -0.03 and 0.02 and 0.1 | 0.12 and 0.1 and 0.13 and 0.14
